The values below come from patent publication US20070032529A1, “Pyrazole compounds and their use as antidiabetes agents” (Japan Tobacco Inc., priority 2005, published 2007).

Usually IC50 stands for the point on the concentration scale where inhibition reaches its midpoint.

Where a name gives a salt, the structure may show the parent alone.

The target in experiment [1] is T1, recombinant human liver glycogen phosphorylase (Homo sapiens, UniProt P06737).
T1 construct: made in house; host or cells: Sf9 insect cells (crude homogenate, diluted, used as the enzyme solution)
T1 sequence (P06737 1-847): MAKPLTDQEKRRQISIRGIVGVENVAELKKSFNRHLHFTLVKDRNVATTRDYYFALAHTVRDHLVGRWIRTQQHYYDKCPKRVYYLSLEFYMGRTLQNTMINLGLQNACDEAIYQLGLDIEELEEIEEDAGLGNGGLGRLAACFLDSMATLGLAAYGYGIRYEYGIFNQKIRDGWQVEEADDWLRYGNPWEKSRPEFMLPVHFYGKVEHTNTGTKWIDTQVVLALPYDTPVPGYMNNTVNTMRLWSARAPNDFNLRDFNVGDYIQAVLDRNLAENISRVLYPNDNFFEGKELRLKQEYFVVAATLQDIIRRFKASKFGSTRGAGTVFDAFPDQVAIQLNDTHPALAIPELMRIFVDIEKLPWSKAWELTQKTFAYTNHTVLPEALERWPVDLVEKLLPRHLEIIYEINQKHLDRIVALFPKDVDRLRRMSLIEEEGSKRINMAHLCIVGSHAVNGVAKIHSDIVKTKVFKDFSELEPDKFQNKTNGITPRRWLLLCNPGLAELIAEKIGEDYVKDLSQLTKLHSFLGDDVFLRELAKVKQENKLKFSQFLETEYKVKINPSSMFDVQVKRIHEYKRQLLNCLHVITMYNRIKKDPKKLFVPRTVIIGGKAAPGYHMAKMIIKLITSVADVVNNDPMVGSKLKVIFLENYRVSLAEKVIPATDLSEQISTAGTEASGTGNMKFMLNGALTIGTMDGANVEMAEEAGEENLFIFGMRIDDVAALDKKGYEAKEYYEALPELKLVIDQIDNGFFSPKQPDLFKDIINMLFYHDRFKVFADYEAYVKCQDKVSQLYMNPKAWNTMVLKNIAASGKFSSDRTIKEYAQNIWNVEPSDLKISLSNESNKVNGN
Description: Measuring liver glycogen phosphorylase activity (forward reaction system, NADPH absorbance at 340 nm). It counts as biochemical. The conditions noted are these: for inhibition at 0.3 µM: compound concentration 300 nmol (in parentheses). A digest of the protocol:
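Sf9 homogenate expressing the enzyme, in pH 6.8 BES/EDTA, with glycogen and phosphate substrate plus glucose, coupled via phosphoglucomutase/G6PDH to NADPH formation. A340 change over 75 min at room temperature, blank-corrected; IC50 linearly interpolated between the two concentrations bracketing 50% inhibition versus 1% DMSO control.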

Experiment [2] deals with db/db mice. The experiment is described as follows: Measuring blood plasma glucose concentration in db/db mice (hypoglycemic effect). Type of experiment: in vivo. Details: key: ++: compounds exhibiting statistically significant hypoglycemic effect at a dose of 10 mg/kg or less; +: compounds exhibiting not significant but obvious hypoglycemic effect at a dose of 10 mg/kg. The conditions noted are these: db/db mice fasted 4 h, oral administration, plasma glucose 1 and 3 hours after administration, dose 10 mg/kg or less, Dunnett test vs solvent. The procedure: 2. Exemplary Test (2) Method for Measuring Blood Plasma Glucose Concentration
Using db/db mice representing an obesity type of diabetic model were used to examine the effect of compound (1) of the present invention on glucose concentrations in plasma. Plasma glucose concentrations of the db/db mice (9-18 weeks old) were measured, and the mice were divided into groups each of 5 or 8 mice such that there would be no difference in the average value of plasma glucose concentrations. After fasting for four hours, the example compound or the solvent (0.5% methylcellulose) was administered orally to the db/db mice, and plasma glucose concentrations were measured 1 and 3 hours after administration. The analysis of the hypoglycemic effect of the example compound was performed through a statistical test at every hour between the group receiving the solvent and the groups of example compound (Dunnett test).

Setting [3] is: enzyme inhibitory activity with respect to liver glycogen phosphorylase, class symbols.
Where [4] appears, read: read-out: inhibition rate (%) at a certain concentration.

Turning to `CN(C)c1ccc(CNC(=O)c2cc(NC(=O)c3cc(F)c(F)cc3Cl)[nH]n2)cn1` [Example 1-129], in experiment [1] (setting [3]), the IC50 was below 100 nM. Further, in experiment [2] (10 mg/kg), the “vivo (hypoglycemic effect in db/db mice)” value is reported as “+”.

For the compound `COc1ncccc1CNC(=O)c1cc(NC(=O)c2cc(F)c(F)cc2Cl)[nH]n1` [Example 3-35], the half-maximal inhibitory concentration (IC50) in experiment [1] (setting [3]) was below 100 nM. In addition, in experiment [2], the “vivo (hypoglycemic effect in db/db mice)” value is “++”. The like results for `O=C(NCc1cccnc1Oc1ccccc1)c1cc(NC(=O)c2cc(F)c(F)cc2Cl)[nH]n1` [Example 1-25] were, in that order, below 100 nM and “+”. In the case of `CN(C)c1ccc(CNC(=O)c2cc(NC(=O)c3cc(F)c(F)cc3Cl)[nH]n2)cc1.Cl` [Example 3-29], the “vivo (hypoglycemic effect in db/db mice)” value in experiment [2] is listed as “+”. As for `O=C(NCc1ccc(N2CCSCC2)nc1)c1cc(NC(=O)c2cc(F)c(F)cc2Cl)[nH]n1` [Example 5-43], the “vivo (hypoglycemic effect in db/db mice)” value in experiment [2] is “+”. Consider `CN(C(=O)c1cc(NC(=O)c2cc(F)c(F)cc2Cl)[nH]n1)c1ccc(C(=O)[O-])cc1.[Na+]` [Example 4-2-1, 4-{[5-(2-chloro-4,5-difluoro-benzoylamino)-1H-pyrazole-3-carbonyl]-methyl-amino}-benzoic acid sodium salt], for which, in experiment [2], the “vivo (hypoglycemic effect in db/db mice)” value is recorded as “++”.

For the compound `COc1cncc(OC)c1CNC(=O)c1cc(NC(=O)c2cc(F)c(F)cc2Cl)[nH]n1` [Example 5-17], the “vivo (hypoglycemic effect in db/db mice)” value in experiment [2] is “+”.

For the compound `Cc1nn(C)c(C)c1CNC(=O)c1cc(NC(=O)c2cc(F)c(F)cc2Cl)[nH]n1` [Example 5-9], in experiment [2], the “vivo (hypoglycemic effect in db/db mice)” value is listed as “+”. `Cc1noc(C)c1CNC(=O)c1cc(NC(=O)c2cc(F)c(F)cc2Cl)[nH]n1.Cl` [Example 5-8]: the “vivo (hypoglycemic effect in db/db mice)” value in experiment [2] is given as “+”.

As to `O=C(NCc1cnccn1)c1cc(NC(=O)c2cc(F)c(F)cc2Cl)[nH]n1` [Example 5-42], the “vivo (hypoglycemic effect in db/db mice)” value in experiment [2] is recorded as “+”.

As for `O=C(NCc1ccc(N2CCS(=O)(=O)CC2)nc1)c1cc(NC(=O)c2cc(F)c(F)cc2Cl)[nH]n1` [Example 5-44], the “vivo (hypoglycemic effect in db/db mice)” value in experiment [2] is given as “+”. The same measure, in the same setting: the same measure for `CS(=O)(=O)O.Cc1noc(C)c1CNC(=O)c1cc(NC(=O)c2cc(F)c(F)cc2Cl)[nH]n1` [Example 5-10]: “+”; for `O=C(NCc1cccnc1)c1cc(NC(=O)c2cc(F)c(F)cc2Cl)[nH]n1` [Example 1-1-1, 5-(2-chloro-4,5-difluoro-benzoylamino)-1H-pyrazole-3-carboxylic acid (pyridin-3-ylmethyl)-amide dihydrochloride]: “++”; for `Cl.O=C(NCc1ccc(-c2csnn2)cc1)c1cc(NC(=O)c2cc(F)c(F)cc2Cl)[nH]n1` [Example 5-31]: “+”. In the case of `CCN(Cc1ccncc1)C(=O)c1cc(NC(=O)c2cc(F)c(F)cc2Cl)[nH]n1` [Example 1-5], the half-inhibitory concentration (IC50) in experiment [1] (setting [3]) is below 100 nM. In the case of `CCN(CCN(C)C)C(=O)c1cc(NC(=O)c2cc(F)c(F)cc2Cl)[nH]n1` [Example 3-43], the inhibition at 0.3 µM in experiment [1] (setting [4]) was found to be 13.4%. As to `O=C(NCc1csc(-c2ccccc2)n1)c1cc(NC(=O)c2cc(F)c(F)cc2Cl)[nH]n1` [Example 2-19], the IC50 in experiment [1] (setting [3]) is below 100 nM. Consider `CN(CCc1ccccc1)C(=O)c1cc(NC(=O)c2cc(F)c(F)cc2Cl)[nH]n1` [Example 3-10], for which, in experiment [1] (compound concentration 1000 nmol (in parentheses), read-out: inhibition rate (%) at a certain concentration), the inhibition at 1 µM is 23.2%. In the case of `CCCCCN(C(=O)c1cc(NC(=O)c2cc(F)c(F)cc2Cl)[nH]n1)c1ccccc1` [Example 3-18], the IC50 in experiment [1] (setting [3]) was in the range of 100 to 300 nM. In the case of `Cc1ccc(F)c(C(=O)Nc2cc(C(=O)NCc3ccccc3)n[nH]2)c1` [Example 4-19], the inhibition at 0.3 µM in experiment [1] (setting [4]) came out at 3.3%. Consider `CC(=N)Nc1cccc(CNC(=O)c2cc(NC(=O)c3cc(F)c(F)cc3Cl)[nH]n2)c1` [Example 6-31], for which the 50% inhibitory concentration (IC50) in experiment [1] (human liver glycogen phosphorylase, class symbol) was below 100 nM. For the compound `O=C(O)CCNC(=O)c1ccc(CNC(=O)c2cc(NC(=O)c3cc(F)c(F)cc3Cl)[nH]n2)cc1` [Example 5-7], in experiment [1] (setting [3]), the IC50 is below 100 nM. On the same count and under the same terms, the same measure for `CCOCCCN(C(=O)c1cc(NC(=O)c2cc(F)c(F)cc2Cl)[nH]n1)C1CCCCC1` [Example 1-102]: below 100 nM.
